Measurements reported in patent US5696276A, “Process for preparing 5,8-dihydroxynaphthoquinone derivatives, novel 5,8-dihydroxynaphthoquinone derivatives and their use as anticancer agent” (Kuhnil Pharmaceutical Co., Ltd., priority 1993, dated 1997).
In brackets after ≈: the same amount, converted by molar mass.

Columns and labels:
L1210 cells = assay: Cytotoxic activity against L1210 cells; assay type: cell-based; conditions: Mus musculus; L1210 cells, 48 hours, 37° C.; read-out: ED50, cytotoxic activity against L1210
Protocol: To obtain L1210 cells in a logarithmic phase for cytotoxic activity test, in a 250 ml Erlenmeyer flask with a screw cap including Fisher medium warmed to 36° to 37° C. L1210 cells were adjusted to a concentration of 2-3×10^5 cells/ml and then cultured, before 24 hours from the beginning of experiment. Then, the culture solution thus obtained was suspended to prepare a L1210 cell suspension having a concentration of about 0.8-1.0×10^6 cells/ml. Test sample was dissoved in ethanol or dimethylsulfoxide in a certain concentration just before the experiment. 0.1 ml of the sample solution was diluted 10 times with 0.9 ml of a fresh medium. To each screw-capped test tube were added 100, 50, 25 μl, respectively, of the sample dilutions and then added 5 ml of the cell suspension (5×10^4 cells/ml) prepared above to use as the test group. To the test tubes for the control group (2√n: n=number of the samples), only 5 ml of the cell suspension was added. All test tubes were cultured for 48 hours in a CO2 incubator at 37° C. and then the number of cells was counted using a haemacytometer.
(§1) The ED50 value is defined as a concentration (μg/ml) of the sample which inhibits the growth of cancer cells by 50% of the control group and determined according to a method described in NIC's mannual (NIC=National Cancer Institue, U.S.A.). The growth rate Y(%) of cells in the presence of the test sample in each concentration was calculated according to the followign equation: […]
(§2) In the above equation, T means the average cell number per ml in the test group after incubation for 48 hours in the presence of the test samples in each concentration, C means the average cell number per ml in the control group after incubation for 48 hours, and Co means the average cell number per ml in the control group at the beginning of incubation. The Y(%) value at each concentration and log10 value of each concentration were obtained and the regression curve was constructed according to the following equation from those obtained values. In this case, when all the Y(%) value obtained at each concentration is greater than 55% or lower than 45%, the experiment was repeatedly conducted.
(§3) To construct the regression curve Y=A+BX the values A and B were obtained using the following equation. [formula]
(§4) In the above, the value N is the number of selected points which is greater than 2 and lower than, or identical with, the number of cencentration of the test sample, Xi is log(concentration) i, and Yi is the growth ratio at (concentration)i. The value of ED50 was obtained for those obtained slope and intercept.

K-562 cells = assay: Cytotoxic activity against K-562 cells; assay type: cell-based; conditions: Homo sapiens; K562 cells, 48 hours, 37° C.; read-out: ED50, cytotoxic activity against K562
Protocol: As in the test for the cytotoxic activity against L1210 cells, the test samples were dissoved in ethanol or dimethylsulfoxide in a certain concentration. 0.1 ml of the sample solution was mixed with 0.9 ml of a fresh medium to prepare the dilutions. To each two test tubes having a screw cap were added 100, 50, 25 μl, respectively, of the sample dilutions by means of a micropipet. To each test tube for the test group and the control group (2√n: n=number of the samples) was added 5 ml of the dilutions of HL-60 cells and K-562 cells which were cultured and activated before 24 hours from the beginning of experiment and then diluted in a concentration of 1×10^5 cells/mi. All test tubes were cultured for 48 hours in a CO2 incubator at 37° C. and then the number of cells was counted using a haemacytometer.
as §1, §2, §3, §4

A549 cancer cells = assay: Cytotoxic activity against A549 cancer cells (sulforhodamin B method); assay type: cell-based; conditions: Homo sapiens; A549 cells, SRB method, 48 hours; read-out: ED50, cytotoxic activity against A549
Protocol: The cytotoxic activity against A549 cancer cells was determined using a method for measuring sulforhodamin B (SRB), which was developed in the year 1989 by NIC for measuring anticancer activity of the drug in vitro. For the experiment, cells under subculturing were separated from the attached surface with trypsin-CDTA solution and then dispensed into a 24-well flat-bottom microplate (Falcon) so that the number of cells per well is 8×10^4 (A549). The microplate was incubated in a CO2 incubator for 24 hours to attach the dispensed cells to bottom. The medium was removed with aspirator. Then, 100 μl of the solution of the test compounds diluted in a log-dose of 6 kinds of concentration was added to each well containing cells, in a multiple of 3. The microplate was incubated for further 48 hours. In addition, the diluted solution of the test compounds above was filtered through a 0.22 μm filter, before addition to the cells, to keep the experiment under sterilized condition. The cells were incubated with the test compounds for 48 hours and then the medium was removed from each well. 100 μl of 10% trichloroacetic acid (TCA) was added to each well and then the plate was allowed to stand at 4° C. for one hour to fix the cells to the bottom of plate. After fixing the cells, the plate was washed 5 to 6 times with water to completely remove any remaining TCA solution and then dried at room temperature until water is no longer present. To the completely dried plate was added the dying solution of 0.4% SRB dissolved in 1% acetic acid in an amount of 250 μl per well to stain the cells for 30 minutes and then the plate was washed again 5 to 6 times with 1% acetic acid solution to remove the remaining SRB which is not bound to the cells. The stained cell plate was dried again at room temperature. Then, the dying solution was carefully dissolved in a certain amount of 10 mM Tris so that the O.D. value in the control group at 520 nm is 0.8-1.0 Å (optical density), and the optical density at 520nm was determined. The ED50 value was obtained from the determined optical density. To calculate the activity of the drug against cancer cells, the number of cells (Tz) at the beginning of the addition of drug, the number of cells (C) after incubation with the medium in the absence of drug for 48 hours and the number of cells (T) after incubation in the presence of drugs at each concentration for 48 hours were determined.
The anticancer activity of the test compounds was determined form the following equations. Specifically, in the […] the equation (T-Tz)/(C-Tz)×100 was used and in the case of Tz<T the equation (T-Tz)/Tz×100 was used. Then the IC50 value wich is the concentration of drug which inhibits the growth of cancer cells by 50% was calcualted from the above calculated values using a data regressive function of LOTUS programme and the cytotoxic activities of the test compounds were compared with each other.

S-180 sarcoma cells = assay: Animal experiment using Sarcoma S-180 cells (survival of mouse); assay type: in vivo, male ICR mouse; conditions: ip, S-180 ICR mouse, comparative drug, 0.5 mg/kg/day (1.2 μmole)
Protocol: In this experiment, healthy male ICR mouse weighing 20 to 25 g were used as test animal and were fed with water and feed without any restriction in the chamber controlled at the temperature of 23° to 24° C. As the feed, the antibiotic-free feed for mouse was used.
S-180 cells which were incubated for 7 days within abdominal cavity of ICR mouse were separated together with ascites. To the separated cells was added sterilized cold physiological saline and the mixture was centrifuged with 400×g for 2 minutes to separate the cell precipitate. The separated cell precipitate was suspended again in sterilized cold physiological saline and then centrifuged to remove the supernatant. Only S-180 cells were taken, excluding any red bllod cells incorporated therein, washed three times with the same method as above, and then suspended to obtain the cell suspension in concentration of 10^7 cells/ml by counting the number of cells with a haemacytometer. Each 0.1 ml of this cell suspension was transplanted in an abdominal cavity.
After 24 hours from the transplantation, mouse were divided so that each group contains 8 to 9 mouse. The test sample was dissolved in a predetermined amount of dimethylsulfoxide to prepare the stock solution which was stored at 4° C. 30 μl of the stock solution was taken and then mixed with 1.5 ml of physiological saline. 0.1 ml of this mixture was intraperitoneally injected to the test animal. To the control group, 2% dimethylsulfoxide-physiological saline solution was injected. Meanwhile, doxorubicin which is used as the comparative drug was dissolved in 2% dimethylsulfoxide-physiological saline solution and then injected in an amount of 0.5 mg(titer)/kg. The schedule for injection comprises a total of 7 to 8 injections in the manner that after the transplantation of cancer cells 0.1 ml of the test sample per a day is administered for 2 to 4 days followed by the rest for one day. The survival rate was calculated on the basis of the date on which all of one control group is died (approximately 18 to 20 days). The survival rate (T/C, %) was calculated by the following equation as proposed in NIC's protocol: [formula]

Structure (SMILES)	IC50 (L1210 cells) [µg/mL]	IC50 (K-562 cells) [µg/mL]	IC50 (A549 cancer cells) [µg/mL]	responders at 0.5 mg/kg/day (S-180 sarcoma cells; 1200 h, read-out: Number of mouse survived for 50 days (converted)) [%]	response vs control in vivo at 0.5 mg/kg/day (S-180 sarcoma cells; read-out: T/C) [%]
CCCCCOC(CCC(C)C)C1=CC(=O)c2c(O)ccc(O)c2C1=O (centres unmarked) [2-(1-pentyloxy-4-methylpentyl)-5,8-dihydroxy-1,4-naphthoquinone]	0.3 (≈ 0.832 µM)	0.2 (≈ 0.555 µM)	1.3 (≈ 3.61 µM)		
CCCCCCCCCC(O)C1=CC(=O)c2c(OC)ccc(OC)c2C1=O (centres unmarked) [2-(1-hydroxydecyl)-5,8-dimethoxy-1,4-naphthoquinone]	1.4 (≈ 3.74 µM)	1.6 (≈ 4.27 µM)	9.2 (≈ 24.6 µM)		
COc1cccc2c1C(=O)c1c(O)c3c(c(O)c1C2=O)C[C@@](O)(C(=O)CO)C[C@@H]3O[C@H]1C[C@H](N)[C@H](O)[C@H](C)O1 [Doxorubicin, reference compound]				44.4	230
CCCCCCCCCC(O)C1=CC(=O)c2c(O)ccc(O)c2C1=O (centres unmarked) [2-(1-hydroxydecyl)-5,8-dihydroxy-1,4-naphthoquinone]	0.1 (≈ 0.289 µM)	0.3 (≈ 0.866 µM)	0.5 (≈ 1.44 µM)		
CCCCCCCOC(CCC(C)C)C1=CC(=O)c2c(OC)ccc(OC)c2C1=O (centres unmarked) [2-(1-heptyloxy-4-methylpentyl)-5,8-dimethoxy-1,4-naphthoquinone]	3.1 (≈ 7.44 µM)	6.4 (≈ 15.4 µM)	4.7 (≈ 11.3 µM)		
COc1ccc(OC)c2c1C(=O)C=C(C(CCC(C)C)OC)C2=O (centres unmarked) [2-(1-methoxy-4-methylpentyl)-5,8-dimethoxy-1,4-naphthoquinone]	0.2 (≈ 0.602 µM)	2.1 (≈ 6.32 µM)	5.6 (≈ 16.8 µM)		
CCCCCCCC(O)C1=CC(=O)c2c(OC)ccc(OC)c2C1=O (centres unmarked) [2-(1-hydroxyoctyl)-5,8-dimethoxy-1,4-naphthoquinone]	1 (≈ 2.89 µM)	2.1 (≈ 6.06 µM)	7.5 (≈ 21.6 µM)		
CCOC(CCC(C)C)C1=CC(=O)c2c(OC)ccc(OC)c2C1=O (centres unmarked) [2-(1-ethoxy-4-methylpentyl)-5,8-dimethoxy-1,4-naphthoquinone]	0.01 (≈ 0.0289 µM)	1.5 (≈ 4.33 µM)	3 (≈ 8.66 µM)		
CCCCCOC(CCC(C)C)C1=CC(=O)c2c(OC)ccc(OC)c2C1=O (centres unmarked) [2-(1-pentyloxy-4-methylpentyl)-5,8-dimethoxy-1,4-naphthoquinone]	2.6 (≈ 6.69 µM)	3 (≈ 7.72 µM)	7.8 (≈ 20.1 µM)		
CCCCC(O)C1=CC(=O)c2c(OC)ccc(OC)c2C1=O (centres unmarked) [2-(1-hydroxypentyl)-5,8-dimethoxy-1,4-naphthoquinone]	0.1 (≈ 0.329 µM)	1.1 (≈ 3.61 µM)	6.4 (≈ 21 µM)		
CCCCCCCCCCCCOC(CCC(C)C)C1=CC(=O)c2c(O)ccc(O)c2C1=O (centres unmarked) [2-(1-dodecyloxy-4-methylpentyl)-5,8-dihydroxy-1,4-naphthoquinone]	> 20	> 20	> 20		
CCCCCC(O)C1=CC(=O)c2c(O)ccc(O)c2C1=O (centres unmarked) [2-(1-hydroxyhexyl)-5,8-dihydroxy-1,4-naphthoquinone]	0.03 (≈ 0.103 µM)	0.02 (≈ 0.0689 µM)	1.1 (≈ 3.79 µM)		
CCCCCCCCCC(OC(=O)CCCCC)C1=CC(=O)c2c(O)ccc(O)c2C1=O (centres unmarked) [2-(1-hexanoyloxydecyl)-5,8-dihydroxy-1,4-naphthoquinone]	0.5 (≈ 1.12 µM)	1.1 (≈ 2.47 µM)	13 (≈ 29.2 µM)		
CCCCCCCCCC(OC(=O)CCCCCCC)C1=CC(=O)c2c(O)ccc(O)c2C1=O (centres unmarked) [2-(1-octanoyloxydecyl)-5,8-dihydroxy-1,4-naphthoquinone]	0.9 (≈ 1.9 µM)	> 20	> 20		
COc1ccc(OC)c2c1C(=O)C=C(C(CCC(C)C)OCCC(C)C)C2=O (centres unmarked) [2-[1-(3-methylbutoxy)-4-methylpentyl]-5,8-dimethoxy-1,4-naphthoquinone]	2.5 (≈ 6.43 µM)	2.3 (≈ 5.92 µM)	3.3 (≈ 8.49 µM)		
CCCCCCCCCCCCC(O)C1=CC(=O)c2c(OC)ccc(OC)c2C1=O (centres unmarked) [2-(1-hydroxytridecyl)-5,8-dimethoxy-1,4-naphthoquinone]	1.8 (≈ 4.32 µM)	2.3 (≈ 5.52 µM)	2.8 (≈ 6.72 µM)		
CCCCCCCC(O)C1=CC(=O)c2c(O)ccc(O)c2C1=O (centres unmarked) [2-(1-hydroxyoctyl)-5,8-dihydroxy-1,4-naphthoquinone]	0.07 (≈ 0.22 µM)	0.2 (≈ 0.628 µM)	0.4 (≈ 1.26 µM)		
CCCCCCCOC(CCC(C)C)C1=CC(=O)c2c(O)ccc(O)c2C1=O (centres unmarked) [2-(1-heptyloxy-4-methylpentyl)-5,8-dihydroxy-1,4-naphthoquinone]	0.8 (≈ 2.06 µM)	0.2 (≈ 0.515 µM)	2.4 (≈ 6.18 µM)		
CCCCCCCCCCCCOC(CCC(C)C)C1=CC(=O)c2c(OC)ccc(OC)c2C1=O (centres unmarked) [2-(1-dodecyloxy-4-methylpentyl)-5,8-dimethoxy-1,4-naphthoquinone]	6.3 (≈ 12.9 µM)	3.7 (≈ 7.6 µM)	4.8 (≈ 9.86 µM)		
